Earlier results as cited in patent US8889725B2, “Sugar-based bait” (Bayer Cropscience AG, priority 2006, dated 2014).

Test system: Tapinoma sessile

For `CCOP(=S)(OCC)O/N=C(\C#N)c1ccccc1` [phoxim, O,O-diethylthionophosphoryl-α-oximinophenylacetonitrile], the “control of the ants” value (baits with 0.05% by weight of phoxim in blackberry syrup or blackberry jam) is given as “complete control” and the “acceptance of the bait by ants” value (baits with 0.5% to 1% by weight of phoxim) is given as “repellent action”.
